Test results as given in patent US8071325B2, “Flow cytometric method and kit for metal-induced sensitivity” (The Trustees of the University of Pennsylvania, priority 2004, dated 2011).
Marks after values point to notes of the source that are not given here.

Legend:
[1] = system: CFSE-labeled peripheral blood lymphocytes (CD3+, CD3+/CD4+, CD3+/CD8+ T cells); assay: CFSE dye dilution proliferation measured by flow cytometry; format: cell-based, human; conditions: for proliferative ratio (PR, %M2/%M1): mean +/- SEM
Method: Cell surface marker staining was performed. The following monoclonal antibodies were used: Phycoerythin (PE) conjugated anti-human CD4, Tricolor-conjugated anti-human CD3, Allophycocyanin (APC) conjugated anti-human CD8 (Caltag, Burlingame, Calif.). The vital dye TO-PRO®-3 (Molecular Probes Inc., Eugene, Oreg.) was used to discriminate live and dead cells.
The CFSE labeling method was adapted from a previously described protocol. Aliquots of the same PBL sample used in the BeLPT assay were split and washed three times in 10 ml of phosphate buffered saline (dPBS, Gibco BRL, Grand Island, N.Y.) at room temperature. The cells were adjusted to 10^6 cells per milliliter, and CFSE (Molecular Probes, Eugene, Oreg.) was added at a final concentration of 1 μM/ml. The cells were vortexed for ten seconds and then incubated for ten minutes in the dark at room temperature with gentle shaking. After incubation an equal volume of sterile, heat inactivated human serum (Gibco BRL, Grand Island, N.Y.) was added to the sample for one minute to quench the reaction. The cells were washed twice, adjusted to the concentration 2×10^6/ml in 10% human heat inactivated serum.
Following CFSE (carboxy fluorescein diacetate succinimide ester) labeling, the cells were cultured in 24-well plates at 2×10^6 per well in the presence of either media alone, PHA, Candida, or either 10 or 100 μM of beryllium sulfate. The cells were incubated for seven days at 37° C. and 5% CO2. Preliminary experiments titrated the optimal dose of CFSE and time of incubation. Surface labeling was performed at the time of harvest using CD3TC, CD4PE and CD8APC in some experiments. TO-PRO®-3 was added to define live cells in some experiments.
All data were acquired on a four-color, dual laser FACSCalibur (Becton Dickinson, San Jose, Calif.). CFSE was measured in Fl-1 channel (530/30-nm bandpass filter), CD4PE in the Fl-2 channel (585/42-nm bandpass filter), CD3TC in the Fl-3-channel (670-nm longpass filter) using excitation from the 488 nm blue laser and TO-PRO®-3 or CD8APC in Fl-4 channel (661/16 bandpass filter) by excitation using the 635 nm red diode laser. Compensation for CFSE in multiparameter flow cytometry is dose dependent and determined empirically.
The basic analysis gating strategy was as follows (FIG. 1): for analysis of CD3+ T cells alone, an initial region was defined as lymphocytes by light scatter and a broad region was set to include medium to high forward/low side scatter events after stimulation with PHA (FIG. 1A, R1) to include all proliferating lymphocytes. For CD3+ T cells, the R1 data were plotted in a contour plot of CD3TC versus TO-PRO®-3 to identify the live CD3+ T Cells (FIG. 1B, R2). The R2 population was expressed on a contour plot of CD3+CD4+ where a double positive region was defined as R3 (FIG. 1C). For final analyses, each population was then analyzed for CFSE (FL1) fluorescence, representing proliferation, on a single parameter histogram using a logical gate of either R1*R2 for CD3+ cells only and R1*R2*R3 for CD3+4+ cells. In experiments where only data from CD3+ or CD3+4+ cells were collected, a live gate on TO-PRO®-3 negative (“viable”) cells was also used in acquisition. When specific CD4+ and CD8+ T cell determination was performed, the viability dye was eliminated. The strategy was similar to that above with light scatter gating (R1) followed by identification of the CD3+ events using a SSC vs CD3+ plot (R2) and CD4+ (R3) and CD8+(R4) identification followed by single parameter histogram analysis of the CFSE fluorescence (for CD4+, R1*R2*R3; for CD8, R1*R2*R4*).
CFSE flow cytometric data files were analyzed using CellQuest™ acquisition/analysis software (Becton Dickinson, San Jose, Calif.). Fifty thousand (50,000) events were collected. The data are reported as the proliferative ratio (PR) defined as the ratio of the percentage of divided cells to undivided cells on day 7 (%M2/%M1). […]

[2] = system: Peripheral blood lymphocytes (PBLs); assay: Blood BeLPT (3H-thymidine incorporation assay); format: cell-based, human; conditions: for stimulation index (SI): mean ± SEM
Method: Beryllium workers (present and former), referred to the Hospital of the University of Pennsylvania (HUP) for possible CBD, were tested. […] CBD was diagnosed when there was evidence of BH with granulomas on biopsy and/or radiologic changes consistent with a granulomatous process. Normal unexposed volunteers were used as controls.
Peripheral blood lymphocytes (PBLs) were isolated from heparinized blood under sterile conditions using density centrifugation with lymphocyte separation medium (ICN Biomedicals Inc., Aurora, Ohio). Blood BeLPT was performed. The cells were cultured at a concentration of 2.5×10^5 cells/well. Stimulants included 500 μg/ml of phytohemagglutinin (PHA) (L-9132; Sigma Chemical Co., St Louis, Mo.), 20 μl/ml of Candida(M15; Greer Labs, Lenoir, N.C.) and 100 μM or 10 μM of beryllium sulfate (Blush Wellman, Cleveland, OH). After culturing the cells in an incubator (5% CO2 and 37° C.) for 3, 5 or 7 days, the cells were pulsed with ^3H thymidine (DuPont NEN, Boston, Mass.) overnight (ice. 16-24 hours) and then harvested on a filter fiber (Wallac, Turku, Finland). The uptake of ^3H thymidine was measured as counts per minute (CPM) using a Wallac 1205 beta plate liquid scintillation system (Wallac Inc., Gaithersburg, Md.). Results were expressed as a stimulation index (SI=mean CPM of test wells/mean CPM of control wells). A positive response was defined as a SI>3.0 for blood A positive test required that a positive response be recorded on two different days or at two different concentrations of beryllium.
All values are presented as ± SEM (standard error of the mean). Data are only presented if a minimum of 1,000 cells were detected within a population. For the tritiated thymidine test, the results were expressed as a stimulation index and group differences (between controls and beryllium-sensitive populations) were evaluated using the Student's T test. For the CFSE tests, since the results were expressed as PR, the Mann-Whitney version of the […] was used to determine if there was a difference between the normal donors and the beryllium exposed patients. Statistical significance was defined as p<0.05.

## O=S(=O)([O-])[O-].[Be+2] [Be, beryllium sulfate]
[1]; CD3+ and CD3+/CD4+ T cells from beryllium-sensitized subjects, both doses
  CFSE-determined response, sensitized versus controls (in words): significant difference
[1]; CD3+ or CD3+/CD4+ high cells from controls, 10 or 100 μM
  CFSE-determined response (in words): minimal response
[1]; CD3+/CD4+, Be 10 μM, day 7, beryllium-exposed sensitized (n = 24)
  proliferative ratio (PR, %M2/%M1): 0.105 ± 0.038
[1]; CD3+/CD4+, Be 10 μM, day 7, normal controls (n = 9)
  proliferative ratio (PR, %M2/%M1): 0.027 ± 0.005
[1]; CD3+/CD4+, Be 100 μM, day 7, beryllium-exposed sensitized (n = 24)
  proliferative ratio (PR, %M2/%M1): 0.089 ± 0.027
[1]; CD3+/CD4+, Be 100 μM, day 7, normal controls (n = 9)
  proliferative ratio (PR, %M2/%M1): 0.029 ± 0.010
[1]; CD3+, Be 10 μM, day 7, beryllium-exposed sensitized (n = 24)
  proliferative ratio (PR, %M2/%M1): 0.115 ± 0.046
[1]; CD3+, Be 10 μM, day 7, normal controls (n = 9)
  proliferative ratio (PR, %M2/%M1): 0.027 ± 0.005
[1]; CD3+, Be 100 μM, day 7, beryllium-exposed sensitized (n = 24)
  proliferative ratio (PR, %M2/%M1): 0.099 ± 0.026
[1]; CD3+, Be 100 μM, day 7, normal controls (n = 9)
  proliferative ratio (PR, %M2/%M1): 0.030 ± 0.008
[1]; CD8+ T cells, normal donors or beryllium-sensitized individuals
  CFSE-determined response, sensitized versus normal donors (in words): no differences were noted
[1]; Table 3 series (CD8 APC staining), CD3+, Be 10 μM, beryllium-exposed sensitized (n = 14)
  proliferative ratio (PR, %M2/%M1): 0.156 +/− 0.114‡
[1]; Table 3 series (CD8 APC staining), CD3+, Be 10 μM, normal controls (n = 6)
  proliferative ratio (PR, %M2/%M1): 0.012 +/− 0.002^†
[1]; Table 3 series (CD8 APC staining), CD3+, Be 100 μM, beryllium-exposed sensitized (n = 14)
  proliferative ratio (PR, %M2/%M1): 0.188 +/− 0.137‡
[1]; Table 3 series (CD8 APC staining), CD3+, Be 100 μM, normal controls (n = 6)
  proliferative ratio (PR, %M2/%M1): 0.013 +/− 0.002
[1]; Table 3 series, CD4+ (CD3+/CD4+), Be 10 μM, beryllium-exposed sensitized (n = 14)
  proliferative ratio (PR, %M2/%M1): 0.164 +/− 0.112‡
[1]; Table 3 series, CD4+ (CD3+/CD4+), Be 10 μM, normal controls (n = 6)
  proliferative ratio (PR, %M2/%M1): 0.015 +/− 0.003
[1]; Table 3 series, CD4+ (CD3+/CD4+), Be 100 μM, beryllium-exposed sensitized (n = 14)
  proliferative ratio (PR, %M2/%M1): 0.210 +/− 0.114‡
[1]; Table 3 series, CD4+ (CD3+/CD4+), Be 100 μM, normal controls (n = 6)
  proliferative ratio (PR, %M2/%M1): 0.015 +/− 0.002
[1]; Table 3 series, CD8+ (CD3+/CD8+), Be 10 μM, beryllium-exposed sensitized (n = 11)
  proliferative ratio (PR, %M2/%M1): 0.016 +/− 0.003
[1]; Table 3 series, CD8+ (CD3+/CD8+), Be 10 μM, normal controls (n = 4)
  proliferative ratio (PR, %M2/%M1): 0.013 +/− 0.003
[1]; Table 3 series, CD8+ (CD3+/CD8+), Be 100 μM, beryllium-exposed sensitized (n = 11)
  proliferative ratio (PR, %M2/%M1): 0.019 +/− 0.002
[1]; Table 3 series, CD8+ (CD3+/CD8+), Be 100 μM, normal controls (n = 4)
  proliferative ratio (PR, %M2/%M1): 0.011 +/− 0.004
[1]; beryllium-sensitive population, CD3+ population, 10 μM, p<0.05
  CFSE-determined response (in words): significant positive response
[1]; beryllium-sensitive population, CD3+/CD4+ population, 10 μM and 100 μM, p<0.05
  CFSE-determined response (in words): significant positive response
[2]; Day 5, Be 10 μM, beryllium-exposed sensitized (n = 24)
  stimulation index (SI): 12.1 ± 3.96
[2]; Day 5, Be 10 μM, normal controls (n = 9)
  stimulation index (SI): 0.72 ± 0.08
[2]; Day 5, Be 100 μM, beryllium-exposed sensitized (n = 24)
  stimulation index (SI): 12.8 ± 4.93
[2]; Day 5, Be 100 μM, normal controls (n = 9)
  stimulation index (SI): 0.74 ± 0.09
[2]; Day 7, Be 10 μM, beryllium-exposed sensitized (n = 24)
  stimulation index (SI): 12.5 ± 4.43
[2]; Day 7, Be 10 μM, normal controls (n = 9)
  stimulation index (SI): 0.44 ± 0.08
[2]; Day 7, Be 100 μM, beryllium-exposed sensitized (n = 24)
  stimulation index (SI): 11.5 ± 4.86
[2]; Day 7, Be 100 μM, normal controls (n = 9)
  stimulation index (SI): 0.52 ± 0.12
[2]; beryllium-sensitized population, p<0.05
  proliferative response by thymidine incorporation (in words): positive responses were noted
[2]; control group
  proliferative response by thymidine incorporation (in words): positive responses to beryllium were not noted

## phytohemagglutinin [PHA]
[1]; CD3+ and CD3+CD4+ cells from both the control and the beryllium-sensitive populations
  CFSE-determined response (in words): positive responses
[1]; CD3+, CD3+/CD4+ and CD3+/CD8+ T cells from controls (n=6) and beryllium-sensitized (n=14) populations
  CFSE-determined response (in words): responded
[1]; CD3+/CD4+, PHA, day 7, beryllium-exposed sensitized (n = 24)
  proliferative ratio (PR, %M2/%M1): 15.756 ± 5.094
[1]; CD3+/CD4+, PHA, day 7, normal controls (n = 9)
  proliferative ratio (PR, %M2/%M1): 10.064 ± 2.753
[1]; CD3+, PHA, day 7, beryllium-exposed sensitized (n = 24)
  proliferative ratio (PR, %M2/%M1): 10.358 ± 4.730
[1]; CD3+, PHA, day 7, normal controls (n = 9)
  proliferative ratio (PR, %M2/%M1): 9.853 ± 2.908
[2]; Day 3, PHA 500 μg/ml, beryllium-exposed sensitized (n = 24)
  stimulation index (SI): 178 ± 23.2
[2]; Day 3, PHA 500 μg/ml, normal controls (n = 9)
  stimulation index (SI): 137 ± 38.9
[2]; control and beryllium-sensitized populations, PHA on day 3, Candida on day 5 and on day 7
  proliferative response by thymidine incorporation (in words): Positive responses
